For one assay, the target named is T1, Renin (Homo sapiens, UniProt P00797).
T1 sequence (P00797 67-406): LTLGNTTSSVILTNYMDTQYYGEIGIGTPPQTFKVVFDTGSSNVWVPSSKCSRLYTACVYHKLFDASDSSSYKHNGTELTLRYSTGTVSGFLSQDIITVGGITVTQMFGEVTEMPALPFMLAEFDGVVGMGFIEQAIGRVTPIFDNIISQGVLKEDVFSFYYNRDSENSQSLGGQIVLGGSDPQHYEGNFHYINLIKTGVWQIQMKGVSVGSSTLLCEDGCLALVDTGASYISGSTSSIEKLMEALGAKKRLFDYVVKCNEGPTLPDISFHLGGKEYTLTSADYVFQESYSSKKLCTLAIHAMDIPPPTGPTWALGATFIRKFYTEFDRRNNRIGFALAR
The assay can be described thus: Renin QFRET. It is filed as biochemical.

A further assay has as its target T2, renin in human plasma (Homo sapiens, UniProt P00797).
T2 construct: from tissue; host or cells: human plasma from 10 normal donors, spiked with human recombinant renin (3 pM)
T2 sequence (P00797 67-406): T1 sequence (P00797 67-406)
The assay can be described thus: Inhibition of renin in human plasma. Format: biochemical. The protocol: The enzymatic in vitro assay was performed in 384-well polypropylene plates (Nunc). The assay buffer consisted of PBS (Gibco BRL) including 1 mM EDTA and 0.1% BSA. The reaction mixture was composed of 80 μL per well of human plasma, enzyme, Ang I-antibodies mix and 5 μL of renin inhibitors in DMSO. The human plasma mix was premixed at 4° C. and consists of • human plasma from 10 normal donors • human recombinant renin (3 pM) • Ang I-antibodies. The mixtures were then incubated at 37° C. for 2 h.
To determine the enzymatic activity and its inhibition, the accumulated Ang I was detected by an enzyme immunoassay (EIA) in 384-well plates (Nunc). 10 μL of the reaction mixture or standards were transferred to immuno plates which were previously coated with a covalent complex of Ang I and bovine serum albumin (Ang I-BSA). 70 μL assay buffer were added and the plates were incubated at 4° C. overnight. The plates were washed 3 times with PBS including 0.01% Tween 20, and then incubated for 2 h at RT with an anti rabbit-peroxidase coupled antibody (WA 934, Amersham). […]

Each structure is given as a SMILES string.

As for `COCCCc1ccc(Cl)c(CN(C(=O)C(CN)Cc2cccnc2N)C2CC2)c1` (centres unmarked) [Example 5, 3-amino-2-[(2-amino-3-pyridinyl)methyl]-N-({2-chloro-5-[3-(methyloxy)propyl]phenyl}methyl)-N-cyclopropylpropanamide], the IC50 stood at 17 nM against Renin and 240 nM on renin in human plasma.

The term IC50 denotes the point on the concentration scale where inhibition reaches its midpoint. A low value points to inhibition by little substance.
